Columns and labels:
SARS-CoV-2 [1] = test: microbe, parasite or virus in culture; conditions: Severe acute respiratory syndrome coronavirus 2, Omicron BA.1, Vero C1008
SARS-CoV-2 [2] = test: microbe, parasite or virus in culture; conditions: Severe acute respiratory syndrome coronavirus 2, 2019-nCoV, Vero C1008

Structure (SMILES)	EC50 (SARS-CoV-2 [1])	EC50 (SARS-CoV-2 [2])
CC(c1nc(-c2ccc(-c3ccc(C(=O)O)s3)cc2)no1)c1cccc2ccccc12 (centres undefined)	25.2 µM	5.4 µM
Cc1ccc(-c2noc(C(C)c3ccc(-c4ccccc4)c(F)c3)n2)cc1NCc1ccc(C(=O)O)s1 (racemic)	79.8 µM	4.3 µM

— ChEMBL document CHEMBL5500399, “Design, Synthesis, and Biological Evaluation of 1,2,4-Oxadiazole Derivatives Containing an Aryl Carboxylic Acid Moiety as Potent Sarbecovirus Papain-like Protease Inhibitors” (J Med Chem, 2024)
